Assay results taken from patent US20230105212A1, “BIPHENYL DERIVATIVE INHIBITOR, PREPARATION METHOD THEREFOR AND USE THEREOF” (SHANGHAI HANSOH BIOMEDICAL CO., LTD., priority 2020, published 2023).

target: T1, human PD-1/PD-L1 binding (Homo sapiens, UniProt Q9NZQ7); test: Inhibition of human PD-1/PD-L1 binding (TR-FRET/HTRF); details: TR-FRET, PD-L1-His and PD-1-Fc; read-out: PD-1/PD-L1 binding IC50
T1 construct: PD-L1-His protein (19 to 238 amino acids) (Abcam #ab167713); purchased Abcam (PD-L1-His); R&D (PD-1-Fc) ab167713; 1086-PD
T1 sequence (Q9NZQ7 19-238): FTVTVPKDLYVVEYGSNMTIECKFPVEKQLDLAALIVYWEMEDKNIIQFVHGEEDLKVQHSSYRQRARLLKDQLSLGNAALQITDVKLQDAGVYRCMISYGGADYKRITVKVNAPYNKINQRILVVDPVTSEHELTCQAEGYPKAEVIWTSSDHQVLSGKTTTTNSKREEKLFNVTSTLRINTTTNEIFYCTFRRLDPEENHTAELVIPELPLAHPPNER
Description: Test Embodiment 1: Test of Inhibitory Effect of the Compounds of the Present Disclosure on Human PD-1/PD-L1 Binding
Experimental purpose: The purpose of this test embodiment was to measure the inhibitory activity of the compounds on human PD-1/PD-L1 binding.
Experimental reagents: Binding Domain diluent buffer was purchased from Cisbio Company, Cat. No.: 62DLBDDF; MAb Anti-6HIS Eu cryptate Gold was purchased from Cisbio Company with the article number of 61HI2KLA; PAb Anti Human IgG-XL665 was purchased from Cisbio Company with the article number of 61HFCXLB; PD-L1-His protein was purchased from Abcam Company with the article number of ab167713; PD-1-Fc protein was purchased from R&D Company with the article number of 1086-PD; Detection buffer was purchased from Cisbio Company with the article number of 62SDBRDD; 384-well plate was purchased from PerkinElmer Company with the article number of 6007290.
Experimental method: In order to test the inhibitory activity of the compounds on human PD-1/PD-L1 binding, the method of time-resolved fluorescence resonance energy transfer (TR-FRET) was used in this experiment to test the inhibition of the compounds on human PD-1/PD-L1 binding, and the half inhibitory concentration IC50 of inhibitory activity of the compounds on human PD-1/PD-L1 binding was obtained.
This experiment was performed in a 384-well plate with a total reaction volume of 20 μL. Compounds were diluted to different concentrations (10 μM or 1 μM starting, 3-fold dilution, 11 doses) using assay buffer Binding Domain diluent buffer (Cisbio #62DLBDDF), then PD-L1-His protein (19 to 238 amino acids) (Abcam #ab167713) was diluted to 10 nM with assay buffer, and PD-1-Fc protein (25 to 167 amino acids) (R&D #1086-PD) was diluted to 20 nM with assay buffer; the compound, PD-L1 protein and PD-1 protein were added to a 384-well plate respectively, and the total volume was 10 μL, then centrifuged at 1000 rpm for 1 minute to mix well, and incubated for 60 minutes at room temperature. Then 10 μL of a mixed solution of MAb Anti-6HIS Eu cryptate Gold (Cisbio #61HI2KLA) and PAb Anti Human IgG-XL665 (Cisbio #61HFCXLB) diluted by HTRF Detection buffer was added to each well, and centrifuged at 1000 rpm for 1 minute to mix well. The reaction was carried out at room temperature for 3 hours or at 4° C. overnight, then a microplate reader (BioTek Synergy H1) was put into for reading; the excitation wavelength was 340 nm, and the emission wavelengths were 620 nm and 665 nm.
The ratio of fluorescence readings at 620 nm and 665 nm (665 nm/620 nm) was calculated, and the inhibition rate was calculated.

Which IC50 does the source give for COc1cc(C(=O)Nc2cccc(-c3cccc(NC(=O)c4nc5c(n4C)CCN(C)C5)c3Cl)c2C)ncc1CN[C@@H]1CCNC1=O [Embodiment 97, (R)—N-(2-Chloro-3′-(4-methoxy-5-(((2-carbonylpyrrolidin-3-yl)amino)methyl)picolinamido)-2′-methyl-[1,1′-biphenyl]-3-yl)-1,5-dimethyl-4,5,6,7-tetrahydro-1H-imidazo[4,5-c]pyridine-2-carboxamide] here?
The IC50 was 5 nM.

With COc1cc(C(=O)Nc2cccc(-c3cccc(NC(=O)c4nc5c(n4C)CCN(C)C5)c3Cl)c2C)ncc1CNC1CN(C(C)=O)C1 [Embodiment 100, N-(3′-(5-(((1-Acetylazetidin-3-yl)amino)methyl)-4-methoxypicolinamido)-2-chloro-2′-methyl-[1,1′-biphenyl]-3-yl)-1,5-dimethyl-4,5,6,7-tetrahydro-1H-imidazo[4,5-c]pyridine-2-carboxamide] as the compound, how does the IC50 read?
Its IC50 is 6 nM.

For COc1cc(C(=O)Nc2cccc(-c3cccc(NC(=O)c4nc5c(n4C)CCN(C)C5)c3Cl)c2C)ncc1CN1CC2(COC2)CC1=O [Embodiment 104, N-(2-Chloro-3′-(4-methoxy-5-((7-carbonyl-2-oxa-6-azaspiro[3.4]octan-6-yl)methyl)picolinamido)-2′-methyl-[1,1′-biphenyl]-3-yl)-1,5-dimethyl-4,5,6,7-tetrahydro-1H-imidazo[4,5-c]pyridine-2-carboxamide], which IC50 is on record?
The IC50 was 9.1 nM.

With Cc1nccc(NCc2ccc(C(=O)Nc3cccc(-c4cccc(NC(=O)c5nc6c(n5C)CCN(C)C6)c4Cl)c3C)nc2)c1F [Embodiment 105, N-(2-Chloro-3′-(5-(((3-fluoro-2-methylpyridin-4-yl)amino)methyl)picolinamido)-2′-methyl-[1,1′-biphenyl]-3-yl)-1,5-dimethyl-4,5,6,7-tetrahydro-1H-imidazo[4,5-c]pyridine-2-carboxamide] as the compound, how does the IC50 read?
The IC50 was 8.5 nM.

Cc1c(NC(=O)c2ccc(CN3CC[C@@H](F)C3)cn2)cccc1-c1cccc(NC(=O)c2nc3c(n2C)CCN(C)C3)c1Cl [Embodiment 106, (R)—N-(2-Chloro-3′-(5-((3-fluoropyrrolidin-1-yl)methyl)picolinamido)-2′-methyl-[1,1′-biphenyl]-3-yl)-1,5-dimethyl-4,5,6,7-tetrahydro-1H-imidazo[4,5-c]pyridine-2-carboxamide] was tested. Which IC50 did it give?
The IC50 was 6.5 nM.

COc1cc(CN2CC(F)C2)cnc1C(=O)Nc1cccc(-c2cccc(NC(=O)c3nc4c(n3C)CCN(C)C4)c2Cl)c1C [Embodiment 108, N-(2-Chloro-3′-(5-((3-fluoroazetidin-1-yl)methyl)-3-methoxypicolinamido)-2′-methyl-[1,1′-biphenyl]-3-yl)-1,5-dimethyl-4,5,6,7-tetrahydro-1H-imidazo[4,5-c]pyridine-2-carboxamide] was tested. Which IC50 did it give?
Its IC50 is 8.4 nM.

COc1cc(CN[C@@H]2CCOC[C@@H]2F)cnc1C(=O)Nc1cccc(-c2cccc(NC(=O)c3nc4c(n3C)CCN(C)C4)c2Cl)c1C [Embodiment 109, N-(2-Chloro-3′-(5-((((3R,4R)-3-fluorotetrahydro-2H-pyran-4-yl)amino)methyl)-3-methoxypicolinamido)-2′-methyl-[1,1′-biphenyl]-3-yl)-1,5-dimethyl-4,5,6,7-tetrahydro-1H-imidazo[4,5-c]pyridine-2-carboxamide] was tested. Which IC50 did it give?
Its IC50 is 4.7 nM.

For CNC(=O)CNCc1ccc(-c2cccc(-c3cccc(NC(=O)c4nc5c(n4C)CCN(C)C5)c3Cl)c2Cl)nc1OC [Embodiment 140, N-(2,2′-Dichloro-3′-(6-methoxy-5-(((2-(methylamino)-2-carbonylethyl)amino)methyl)pyridin-2-yl)-[1,1′-biphenyl]-3-yl)-1,5-dimethyl-4,5,6,7-tetrahydro-1H-imidazo[4,5-c]pyridine-2-carboxamide], which IC50 is on record?
The IC50 was 9.1 nM.

COc1cc(-c2cccc(-c3cccc(NC(=O)c4nc5c(n4C)CCN(C)C5)c3Cl)c2Cl)cnc1CN1CC(F)C1 [Embodiment 163, N-(2,2′-Dichloro-3′-(6-((3-fluoroazetidin-1-yl)methyl)-5-methoxypyridin-3-yl)-[1,1′-biphenyl]-3-yl)-1,5-dimethyl-4,5,6,7-tetrahydro-1H-imidazo[4,5-c]pyridine-2-carboxamide] was tested. Which IC50 did it give?
Its IC50 is 7.7 nM.
